Read-outs that look alike come from different tables or passages of the source.

Series [1] has as its target T1, LXRα LBD (Homo sapiens, UniProt Q13133).
T1 sequence (Q13133 200-447): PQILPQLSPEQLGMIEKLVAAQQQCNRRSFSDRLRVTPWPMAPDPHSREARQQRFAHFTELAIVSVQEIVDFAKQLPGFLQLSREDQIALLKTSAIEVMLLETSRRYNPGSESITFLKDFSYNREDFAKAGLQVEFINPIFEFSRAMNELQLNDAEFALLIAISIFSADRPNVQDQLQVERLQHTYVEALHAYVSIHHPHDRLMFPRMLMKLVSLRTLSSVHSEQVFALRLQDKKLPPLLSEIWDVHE
The experiment in a line: biochemical.
Description: (§4) The compounds were run in triplicate (binding assay) or in quadruplicate (transactivation assay). Standard deviations are indicated for individual experiments run more than once.

The target of series [2] is T2, LXRβ LBD (Homo sapiens, UniProt P55055).
T2 sequence (P55055 215-460 limits assumed): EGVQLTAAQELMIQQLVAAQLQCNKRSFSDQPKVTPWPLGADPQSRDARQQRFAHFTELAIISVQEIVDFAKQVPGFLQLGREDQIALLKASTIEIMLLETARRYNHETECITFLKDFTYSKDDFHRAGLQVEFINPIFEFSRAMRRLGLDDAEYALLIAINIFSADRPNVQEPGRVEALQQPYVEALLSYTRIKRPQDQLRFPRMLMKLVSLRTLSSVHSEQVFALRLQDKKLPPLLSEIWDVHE
Nature of the series: biochemical.
Description: as §4

Series [3] has as its target T2, LXRβ LBD. The experiment in a line: differential HDX-MS of LXRβ LBD (apo vs ligand-bound). More on the design: human his-tagged LXRβ LBD (216-461); His tag; made in house; host or cells: Escherichia coli BL21(DE3). To be noted: after 30 s of deuterium exchange. On the procedure: (§1) Prior to the deuterium incorporation experiments, 10 µM apo LXR was incubated with 10× excess of ligand or equal volume of DMSO for 30 min at room temperature. In the experiments with cofactors, 15× excess of the SRC1 coactivator peptide and the NCOR1 corepressor peptide were added to the ligand-bound or apo proteins, respectively, and incubated for 30 min at room temperature. […] A fully deuterated sample was generated by incubating protein with 4 M guanidine-HCl in D2O for 30 min at 45 °C. Exchange reactions were performed with a CTC PAL sample handling robot (LEAP Technologies). Labeling times were 30, 60, 180, 600, and 1800 s in the kinetics experiments. Differential HDX of a complete compound selection was measured after 30 and 600 s of labeling time points. Reactions were conducted by incubating 4 µl of LXR with 50 µl of D2O buffer (containing 25 mM Tris-HCl (pD 7.6), 50 mM NaCl, 10% glycerol, and 1 mM TCEP). The exchange reaction was stopped by the addition of 50 µl of quench solution (3 M urea, 0.1% TFA) followed by immediate injection into a Enzymate BEH Pepsin 2.1 × 30 mm Column (Waters, UK) for protein digestion (2 min at 24 °C). Peptic digest was further injected on a Waters nanoACQUITY UPLC System where peptides were first desalted by trapping for 3 min on a VanGuard Pre-Column Acquity UPLC BEH C18 (1.7 μm; 2.1 × 5 mm), and then eluted over a 6-min 5–40% (vol/vol) acetonitrile (containing 0.1% formic acid) gradient into a Waters Synapt G2-Si mass spectrometer. Peptide separation was conducted at 0.1 °C. All exchange reactions were performed in triplicates.
(§2) Peptides from three samples of non-deuterated LXR were identified by using the ProteinLynx Global Server (PLGS Waters, UK). Peptides with an intensity of over 5000, a mass error < 5 ppm, and present in at least two of the three data acquisitions were pooled and imported into the DynamX data analysis software (Waters, UK). After a first round of automated spectral processing by using DynamX, each peptide was inspected manually for suitability for further analysis.
(§3) For pairwise comparison, MEMHDX software was used to identify statistically significant changes of deuterium uptake. For all peptides, a value of relative exchange per amino acid was corrected to back exchange. The mean deuteration level per amino acid was calculated by using Matlab (Mathworks)[69] and subsequently mapped onto the crystal structures with PyMOL (Schrodinger LLC). For structural representation, loop modeling with MOE (Chemical Computing Group Inc.) was applied on 2ACL.pdb file for LXRα LBD, and 1PQC.pdb for LXRβ LBD.

Series [4] can be described thus: quantification of drug concentration in plasma of mice. Conditions: oral gavage. It is filed as in vivo, mouse. How it is done: Solid compounds were solubilized in PEG400/Ethanol/Solutol/Water solution (36.3/9.1/4.6/50%). Compounds were given daily by oral gavage, 5 ml kg^−1, at doses ranging from 0.1 to 100 μmol kg^−1 of body weight for 4 days. Animals were terminated 3 h after the last dose.
At termination, the whole-blood volume was drawn from isoflurane-anesthetized mice via an incision in the carotid artery into EDTA blood tubes (S-Monovette®, EDTA KE/1.3 mL, Sarstedt, Nümbrecht, Germany or BD Microtainers®, Benton, Dickinson and Company, Franklin Lakes, New Jersey, USA). Blood samples were placed on ice and centrifuged within an hour (15 min, 2500 × g, 4 °C or 5 min, 16000 × g, 4 °C). The plasma was then dispensed in separate tubes and kept at −80 °C for later analysis of compound concentration and TG levels. For the analysis of intestinal Abca1 transcript levels, a 3–5-mm long segment of the duodenum was excised and cleared from any gut contents. Tissues were instantly snap frozen in liquid nitrogen and stored at −80 °C.
About 25 µL of plasma was precipitated with 150 µL of cold acetonitrile containing 0.2% formic acid. After vortexing followed by 20 min of centrifugation at 3220 × g and 4 °C, the supernatant was diluted 1:1 with 0.2% formic acid (aqueous phase). […]

Series [5] concerns the target T1, LXRα LBD. The experiment in a line: differential HDX-MS of LXRα LBD (apo vs ligand-bound). More on the design: Human his-tagged LXRα LBD (200-447); His tag; made in house; host or cells: Escherichia coli BL21(DE3). To be noted: for stabilization of LXRα H12: HDX-MS; for protection of LXRα H3 from deuterium exchange: after 600 s of deuterium exchange. How it is done:
as §1, §2, §3

A further series has as its system LXR KO macrophages. The experiment in a line: LXR target gene expression in LXR KO macrophages. It is filed as cell-based. To be noted: reply to reviewers.
The next series deals with plasma triglycerides. Also on record: method as in van der Hoorn et al. 2011. To be noted: AZ876 high dose 20 µmol·kg−1·day−1, GW3965 at a similar dose; ref van der Hoorn et al. 2011; cited from earlier work.
Setting [6] is: Receptor-binding affinity pKi LXRα, value (SD, n independent experiments).
Setting [7] is: Receptor-binding affinity pKi LXRβ, value (SD, n independent experiments).
[8] abbreviates: binding affinity to the LXRβ LBD.

Turning to `CN(C)C(=O)c1cccc(CCCCNC2=C(c3ccccc3)S(=O)(=O)N(C(C)(C)C)C2=O)c1` [AZ1], the Ki on LXRα LBD [1] (setting [6]) is 91.2 nM; on LXRβ LBD [2] (setting [7]) it was 2.51 nM; on LXRβ LBD [2] (setting [8]), 2 nM.
As to `CC(CCCc1cccc(S(N)(=O)=O)n1)NC1=C(c2ccccc2)S(=O)(=O)N(C(C)C)C1=O` (stereo not drawn) [AZ2], the inhibition constant Ki at LXRα LBD [1] (setting [6]) was 91.2 nM; on LXRβ LBD [2] (setting [7]), 3.72 nM.
For the molecule `CC(C)N1C(=O)C(NCCCCc2cccc(S(N)(=O)=O)n2)=C(c2ccccc2)S1(=O)=O` [AZ3], the “protection of LXRβ H11–H12 from deuterium exchange” value on LXRβ LBD [3] was 17-25%. The inhibition constant Ki at LXRα LBD [1] (setting [6]) was 501 nM; on LXRβ LBD [2] (setting [7]) it was 17.4 nM; at LXRβ LBD [2] (setting [8]) it was 4 nM.
Take `CC(C)(C)N1C(=O)C(NC2CCN(c3ncc(CC(=O)O)cc3Cl)CC2)=C(c2ccccc2)S1(=O)=O` [AZ4]: the values for the Ki on LXRα LBD [1] (setting [6]) and on LXRβ LBD [2] (setting [7]) were 355 nM and 33.1 nM, respectively.
Consider `CN(C)C(=O)c1cnc(N2CC[C@@H](CNC3=C(c4ccccc4)S(=O)(=O)N(C(C)(C)C)C3=O)C2)c(Cl)c1` [AZ5], for which the Ki on LXRα LBD [1] (setting [6]) is 2140 nM; at LXRβ LBD [2] (setting [7]), 77.6 nM. Also, the systemic exposure result in series [4] was “too low”. For the same molecule, the “stabilization of LXRα H12” value on LXRα LBD [5] is given as “did not stabilize LXRα H12”. For the same molecule, the “protection of LXRα H3 from deuterium exchange” value at LXRα LBD [5] was “no effect”.
With `CC(C)N1C(=O)C(NC2CCN(c3ncc(CC(=O)O)cc3Cl)CC2)=C(c2ccccc2)S1(=O)=O` [AZ6], on LXRβ LBD [3], the “protection of LXRβ H11–H12 from deuterium exchange” value was 17-25%. For the same molecule, the inhibitory constant (Ki) is 1580 nM at LXRα LBD [1] (setting [6]) and 162 nM on LXRβ LBD [2] (setting [7]).
For `CC(C)(C)N1C(=O)C(Cc2ccccc2)=C(NC2CCN(c3ncc(CC(=O)O)cc3Cl)CC2)C1=O` [AZ7], the figures for the inhibition constant (Ki) on LXRα LBD [1] (setting [6]), at LXRα LBD [1] (binding affinity to LXRα) and at LXRβ LBD [2] (setting [7]) were 1070 nM, 1000 nM and 105 nM, respectively.
With `O=C1C(Cc2ccccc2)=C(NCCCCc2ccccc2)C(=O)N1Cc1ccccc1` [AZ8], the “protection of LXRβ H11–H12 from deuterium exchange” value on LXRβ LBD [3] is 17-25%. The Ki was 195 nM on LXRα LBD [1] (setting [6]) and 47.9 nM at LXRβ LBD [2] (setting [7]). For the same molecule, on LXRα LBD [5], the “protection of LXRα H3 from deuterium exchange” value is “no effect”.
For the molecule `CC(C)(O)c1cn(-c2ccc(-c3cc(F)c(CO)c(S(C)(=O)=O)c3)cc2F)c(C(C)(C)c2c(Cl)cccc2Cl)n1` [BMS-852927], the Ki on LXRβ LBD [2] (setting [7]) was 2.63 nM. This molecule had an inhibitory constant (Ki) at LXRβ LBD [2] (setting [8]) of 3 nM. Further, the “LXR target gene expression in LXR KO macrophages” value in the series on LXR KO macrophages is “does not induce LXR”. Moreover, at LXRα LBD [5], the “stabilization of LXRα H12” value is recorded as “did not stabilize LXRα H12” and the “protection of LXRα H3 from deuterium exchange” value amounted to 60%.
As for `O=C(O)Cc1ccc(CNC(=O)[C@@H]2Cc3ccccc3N2S(=O)(=O)c2ccc(-c3ccccc3C(F)(F)F)cc2)cc1` [F1, reference compound], the figures for the inhibition constant (Ki) on LXRα LBD [1] (setting [6]), on LXRα LBD [1] (binding affinity to LXRα) and on LXRβ LBD [2] (setting [7]) were 10.2 nM, 10 nM and 36.3 nM, respectively. For the same molecule, the “stabilization of LXRα H12” value on LXRα LBD [5] was “did not stabilize LXRα H12”.
On to `O=C(O)Cc1cccc(OCCCN(Cc2cccc(C(F)(F)F)c2Cl)CC(c2ccccc2)c2ccccc2)c1` [GW3965, reference compound], for which the results for the inhibition constant (Ki) on LXRα LBD [1] (setting [6]) and on LXRβ LBD [2] (setting [7]) were 158 nM and 24 nM, respectively. Besides, the “increase of plasma triglyceride levels” value with plasma triglycerides is 70%.
As to `Fc1ccc(-c2c3cccc(C(F)(F)F)c3nn2Cc2ccc(F)cc2Cl)cc1` [LXR-623, reference compound], the Ki at LXRα LBD [1] was 490 nM; on LXRβ LBD [2], 95.5 nM. Also, the “protection of LXRα H3 from deuterium exchange” value on LXRα LBD [5] was “no effect”.
With `O=S(=O)(c1ccccc1)N(CC(F)(F)F)c1ccc(C(O)(C(F)(F)F)C(F)(F)F)cc1` [T0901317, reference compound], at LXRβ LBD [3], the “protection of LXRβ H11–H12 from deuterium exchange” value is on record as 17-25%.

The term Ki denotes the dissociation constant of the complex between target and ligand, obtained from inhibition or displacement. A high value points to weaker binding.

The values are drawn from publication PMC6874530, “Structural analysis identifies an escape route from the adverse lipogenic effects of liver X receptor ligands” (Communications Biology, 2019).
